# Patent US10231907B2, “Compositions for improving the health and appearance of skin” (Algenist Holdings, Inc., priority 2006, dated 2019)
# Columns and labels:
# [1] = system: Fibroblasts; assay: Procollagen synthesis (type I C-peptide ELISA) in fibroblast culture; type: cell-based, human; details: 4 mM, 48 hours, mean ± SD
# From the text: A fibroblast cell culture model was used to assess the ability of the polysaccharide from Porphyridium to exert an effect on procollagen synthesis. Fibroblasts are the main source of the extracelluar matrix peptides, including the structural protein collagen. Procollagen is a large peptide synthesized by fibroblasts in the dermal layer of the skin and is the precursor for collagen. As the peptide is processed to form a mature collagen protein, the propeptide portion is cleaved off (type I C-peptide). Both the mature collagen protein and the type I C-peptide fragment are then released into the extracellular environment. As collagen is synthesized the type I C-peptide fragment accumulates into the tissue culture medium. Since there is a 1:1 stoichiometric ratio between the two parts of the procollagen peptide, assaying for type I C-peptide reflects the amount of collagen synthesized. […]
# A series of type I C-peptide standards was prepared ranging from 0 ng/ml to 640 ng/ml. […] After the incubation 100 μl of stop solution (1 N sulfuric acid) was added to each well and the plate was read using a microplate reader at 450 nm.
# To quantify the amount of procollagen present, a standard curve was generated using known concentrations of procollagen. […] Absorbance values for the test and positive control samples was used to determine the amount of procollagen present. […]
# [2] = system: Porphyridium sp. and Porphyridium cruentum; assay: Antibiotic sensitivity on agar plates; type: cell-based; details: 14 days
# Protocol: Approximately […] cells (300 ul of 1.5×10^5 cells per ml) of Porphyridium sp. and Porphyridium cruentum cultures in liquid ATCC 1495 ASW media were plated onto ATCC 1495 ASW agar plates (1.5% agar). The plates contained varying amounts of zeocin, sulfometuron, hygromycin and spectinomycin. The plates were put under constant artificial fluorescent light of approximately 480 lux. After 14 days, plates were checked for growth.
# [3] = system: MatTek EpiDerm® skin model (normal human-derived epidermal keratinocytes); assay: TT dimer-UV exposure assay in MatTek EpiDerm skin model; type: cell-based; details: 1 mM, UVB 300 mJ/cm^2, mean ± SD
# Protocol: TT dimer-UV exposure assay: The testing system used for this assay was the MatTek EpiDerm®, a skin model that consists of normal human-derived epidermal keratinocytes cultured to form a multilayered, highly differentiated model of the human epidermis. For this study, the tissues were treated topically overnight with either test materials, 1 mM Trolox (positive control), or left untreated (negative control). On the following day, the tissues were exposed to UVB (300 mJ/cm^2). Following the exposures the DNA was extracted from the EpiDerm tissues and assayed for thymine dimer content. Samples of the DNA were immobilized on a solid membrane support and incubated with an antibody that recognizes thymidine dimers in double stranded DNA. The primary antibody was detected using a secondary antibody conjugated to an alkaline phosphatase enzyme followed by the addition of a substrate that the alkaline phosphatase enzyme uses to generate a chemiluminescent signal. The light generated by this reaction was captured using film with the intensity of the light signal being proportional to the amount of the thymine dimers present in the sample. Test material BM was Porphyridium sp. biomass that had been homogenized with a Microfluidizer® twice and then lyophilized. […] Extracted DNA was quantified via a fluorometric assay. […]
# [4] = system: hyaluronidase; assay: Anti-hyaluronidase assay (bHA-coated 96-well plate); type: biochemical; details: 0.1%
# Protocol: Biotinylated hyaluronic acid (bHA) was covalently attached to the wells of a 96-well plate. Samples containing hyaluronidase and various test materials were then added to the wells. The hyaluronidase degrades the bound hyaluronic acid, resulting in a decrease in the amount of biotin covalently linked to the well plate. At the end of the incubation period the reaction was stopped and the well plate was washed to remove the hyaluronidase. The remaining bHA was detected using an avidin bound peroxidase enzyme. When an appropriate substrate is added, the peroxidase enzyme generated a color signal in proportion to the amount of bHA. The color signal was measured spectrophotometrically, and was inversely proportional to the amount of hyaluronidase activity in the sample. […] Also see Frost, G. I., Stern, R. A Microtiter-Based Assay for Hyaluronidase Activity Not Requiring Specialized Reagents. Analytical Biochemistry 251, 263-269: 1997. […]
# During the 30 minute incubation, an avidin/biotin-peroxidase complex was prepared in 10.5 ml of PBS containing 0.1% Tween 20 using an ABC kit. […] The plate was incubated in the dark for 10-20 minutes and then read at 460 nm using a plate reader. The substrate solution was also added to three wells that were not treated with test materials or the avidin/biotin-peroxidase solution and were used as a blank for the absorbance measurements. […]
compound,measurement,setting,value
"CCCC(=O)[O-].[Na+] [Na Butyrate, sodium butyrate]",Type I C-Peptide,[1],1425 ± 81 ng/mL
CN[C@@H]1[C@H](O)[C@H](NC)[C@H]2O[C@@]3(O)C(=O)C[C@@H](C)O[C@H]3O[C@@H]2[C@H]1O [Specinomycin],Growth,[2]; 100.0 ug/ml,+ + + +
same,Growth,[2]; 250.0 ug/ml,+ + + +
same,Growth,[2]; 750.0 ug/ml,+ + + +
Cc1c(C)c2c(c(C)c1O)CCC(C)(C(=O)O)O2 (stereo not drawn) [Trolox],Optical Density (thymidine dimer),[3],107 ± 1 optical density units
heparin,Percent Inhibition,[4],74%
